Converted amounts (≈) assume the structure as drawn.
Legend:
Type in all cases: functional
[1] = system: Staphylococcus; test: Antimicrobial activity against methicillin-susceptible coagulase-negative Staphylococcus after 20 to 24 hrs by broth microdilution method
[2] = system: Staphylococcus; test: Antimicrobial activity against methicillin-resistant coagulase-negative Staphylococcus after 20 to 24 hrs by broth microdilution method
[3] = system: Staphylococcus aureus; test: Antimicrobial activity against methicillin-resistant Staphylococcus aureus after 20 to 24 hrs by broth microdilution method
[4] = system: Streptococcus pneumoniae; test: Antibacterial activity against penicillin-susceptible Streptococcus pneumoniae after 20 to 24 hrs by broth microdilution method
[5] = system: Streptococcus pneumoniae; test: Antibacterial activity against penicillin-intermediate Streptococcus pneumoniae after 20 to 24 hrs by broth microdilution method
[6] = system: Staphylococcus aureus; test: Antimicrobial activity against methicillin-susceptible Staphylococcus aureus after 20 to 24 hrs by broth microdilution method
[7] = system: Streptococcus pneumoniae; test: Antibacterial activity against penicillin-resistant Streptococcus pneumoniae after 20 to 24 hrs by broth microdilution method
[8] = system: Streptococcus sp. 'group B'; test: Antimicrobial activity against Streptococcus group B after 20 to 24 hrs by broth microdilution method
[9] = system: Streptococcus viridans; test: Antimicrobial activity against Streptococcus viridans after 20 to 24 hrs by broth microdilution method
[10] = system: Streptococcus sp. 'group A'; test: Antimicrobial activity against Streptococcus group A after 20 to 24 hrs by broth microdilution method
[11] = system: Enterococcus faecium; test: Antibacterial activity against vancomycin-resistant Enterococcus faecium after 20 to 24 hrs by broth microdilution method
[12] = system: Enterococcus faecalis; test: Antimicrobial activity against vancomycin-susceptible Enterococcus faecalis after 20 to 24 hrs by broth microdilution method
[13] = system: Enterococcus faecalis; test: Antimicrobial activity against vancomycin-resistant Enterococcus faecalis after 20 to 24 hrs by broth microdilution method
[14] = system: Enterococcus faecium; test: Antibacterial activity against vancomycin-susceptible Enterococcus faecium after 20 to 24 hrs by broth microdilution method

Row | Structure (SMILES) | MIC50 [1] [µg/mL] | MIC90 [1] [µg/mL] | MIC50 [2] [µg/mL] | MIC50 [3] [µg/mL] | MIC50 [4] [µg/mL] | MIC90 [4] [µg/mL] | MIC50 [5] [µg/mL] | MIC90 [5] [µg/mL] | MIC50 [6] [µg/mL] | MIC90 [6] [µg/mL] | MIC50 [7] [µg/mL] | MIC50 [8] [µg/mL] | MIC90 [8] [µg/mL] | MIC50 [9] [µg/mL] | MIC90 [9] [µg/mL] | MIC50 [10] [µg/mL] | MIC90 [10] [µg/mL] | MIC90 [7] [µg/mL] | MIC90 [2] [µg/mL] | MIC90 [3] [µg/mL] | other results
1 | CC[C@H]1OC(=O)[C@H](C)[C@@H](O[C@H]2C[C@@](C)(OC)[C@@H](O)[C@H](C)O2)[C@H](C)[C@@H](O[C@@H]2O[C@H](C)C[C@H](N(C)C)[C@H]2O)[C@](C)(O)C[C@@H](C)C(=O)[C@H](C)[C@@H](O)[C@]1(C)O [ERYTHROMYCIN] | 0.25 (≈ 0.341 µM) | > 16 | > 16 | > 16 | 0.03 (≈ 0.0409 µM) | 0.06 (≈ 0.0818 µM) | 0.03 (≈ 0.0409 µM) | > 1 | 0.5 (≈ 0.681 µM) | > 16 | > 1 | 0.03 (≈ 0.0409 µM) | 0.5 (≈ 0.681 µM) | 0.03 (≈ 0.0409 µM) | > 1 | 0.03 (≈ 0.0409 µM) | 0.06 (≈ 0.0818 µM) |  |  |  | 
2 | CO/N=C(\C(=O)N[C@@H]1C(=O)N2C(C(=O)O)=C(CSc3nc(=O)c(O)nn3C)CS[C@H]12)c1csc(N)n1 [CEFTRIAXONE] |  |  |  |  | 0.03 (≈ 0.0541 µM) | 0.03 (≈ 0.0541 µM) | 0.12 (≈ 0.216 µM) | 1 (≈ 1.8 µM) |  |  | 1 (≈ 1.8 µM) | 0.06 (≈ 0.108 µM) | 0.06 (≈ 0.108 µM) | 0.12 (≈ 0.216 µM) | 2 (≈ 3.61 µM) | 0.03 (≈ 0.0541 µM) | 0.03 (≈ 0.0541 µM) | 2 (≈ 3.61 µM) |  |  | 
3 | CC[C@H]1OC(=O)[C@H](C)C(=O)[C@H](C)[C@@H](O[C@@H]2O[C@H](C)C[C@H](N(C)C)[C@H]2O)[C@](C)(OC)C[C@@H](C)C(=O)[C@H](C)[C@H]2N(CCCCn3cnc(-c4cccnc4)c3)C(=O)O[C@]12C [TELITHROMYCIN] | 0.06 (≈ 0.0739 µM) | 0.5 (≈ 0.616 µM) | 0.12 (≈ 0.148 µM) | 0.12 (≈ 0.148 µM) | 0.008 (≈ 0.00985 µM) | 0.008 (≈ 0.00985 µM) | 0.008 (≈ 0.00985 µM) | 0.25 (≈ 0.308 µM) | 0.12 (≈ 0.148 µM) | 0.12 (≈ 0.148 µM) | 0.015 (≈ 0.0185 µM) | 0.015 (≈ 0.0185 µM) | 0.015 (≈ 0.0185 µM) | 0.008 (≈ 0.00985 µM) | 0.12 (≈ 0.148 µM) | 0.015 (≈ 0.0185 µM) | 0.015 (≈ 0.0185 µM) | 0.03 (≈ 0.0369 µM) | > 8 | > 8 | 
4 | CC(=O)NC[C@H]1CN(c2ccc(N3CCOCC3)c(F)c2)C(=O)O1 [LINEZOLID] | 1 (≈ 2.96 µM) | 2 (≈ 5.93 µM) | 2 (≈ 5.93 µM) | 2 (≈ 5.93 µM) | 1 (≈ 2.96 µM) | 1 (≈ 2.96 µM) | 1 (≈ 2.96 µM) | 1 (≈ 2.96 µM) | 2 (≈ 5.93 µM) | 2 (≈ 5.93 µM) | 1 (≈ 2.96 µM) | 1 (≈ 2.96 µM) | 1 (≈ 2.96 µM) | 1 (≈ 2.96 µM) | 1 (≈ 2.96 µM) |  |  | 1 (≈ 2.96 µM) | 2 (≈ 5.93 µM) | 2 (≈ 5.93 µM) | MIC [1]: 1 µg/mL (≈ 2.96 µM); MIC50 [11]: 2 µg/mL (≈ 5.93 µM); MIC90 [11]: 2 µg/mL (≈ 5.93 µM); MIC50 [12]: 2 µg/mL (≈ 5.93 µM); MIC90 [12]: 2 µg/mL (≈ 5.93 µM); MIC50 [13]: 2 µg/mL (≈ 5.93 µM); MIC90 [13]: 2 µg/mL (≈ 5.93 µM); MIC50 [14]: 2 µg/mL (≈ 5.93 µM); MIC90 [14]: 2 µg/mL (≈ 5.93 µM)
5 | CC1(C)S[C@@H]2[C@H](NC(=O)[C@H](N)c3ccccc3)C(=O)N2[C@H]1C(=O)O [AMPICILLIN] |  |  |  |  |  |  |  |  |  |  |  |  |  |  |  |  |  |  |  |  | MIC50 [11]: 128 µg/mL (≈ 366 µM); MIC90 [11]: 128 µg/mL (≈ 366 µM); MIC50 [12]: 1 µg/mL (≈ 2.86 µM); MIC90 [12]: 2 µg/mL (≈ 5.72 µM); MIC [13]: 1 µg/mL (≈ 2.86 µM); MIC50 [13]: 1 µg/mL (≈ 2.86 µM); MIC90 [13]: 4 µg/mL (≈ 11.4 µM); MIC50 [14]: 64 µg/mL (≈ 183 µM); MIC90 [14]: 128 µg/mL (≈ 366 µM)
6 | CO/N=C(\C(=O)N[C@@H]1C(=O)N2C(C(=O)O)=C(COC(N)=O)CS[C@H]12)c1ccco1 [CEFUROXIME] |  |  |  |  | ≤ 0.12 | ≤ 0.12 | 0.5 (≈ 1.18 µM) | 4 (≈ 9.43 µM) |  |  | > 4 | ≤ 0.12 | ≤ 0.12 | ≤ 0.12 | 2 (≈ 4.71 µM) | ≤ 0.12 | ≤ 0.12 | > 4 |  |  | MIC [4]: ≤ 0.12 µg/mL; MIC [7]: ≥ 4 µg/mL; MIC [8]: ≤ 0.12 µg/mL; MIC [9]: ≤ 0.12 µg/mL; MIC [10]: ≤ 0.12 µg/mL
7 | CN(C)[C@@H]1C(O)=C(C(N)=O)C(=O)[C@@]2(O)C(O)=C3C(=O)c4c(O)cccc4[C@@](C)(O)[C@H]3C[C@@H]12 [TETRACYCLINE] |  |  |  |  | 0.12 (≈ 0.27 µM) | 0.25 (≈ 0.563 µM) | 0.25 (≈ 0.563 µM) | > 8 |  |  | 0.25 (≈ 0.563 µM) | > 8 | > 8 | 0.5 (≈ 1.13 µM) | > 8 | 0.12 (≈ 0.27 µM) | > 8 |  |  |  | MIC [10]: 0.12 µg/mL (≈ 0.27 µM)
8 | O=C(O)c1cn(C2CC2)c2cc(N3CCNCC3)c(F)cc2c1=O [CIPROFLOXACIN] |  |  | 2 (≈ 6.04 µM) | > 8 |  |  |  |  | 0.25 (≈ 0.754 µM) | 1 (≈ 3.02 µM) |  |  |  |  |  |  |  |  | > 8 | > 8 | MIC50 [11]: 32 µg/mL (≈ 96.6 µM); MIC50 [12]: 1 µg/mL (≈ 3.02 µM); MIC90 [12]: > 32 µg/mL; MIC50 [13]: 1 µg/mL (≈ 3.02 µM)
9 | Cc1onc(-c2ccccc2)c1C(=O)N[C@@H]1C(=O)N2[C@@H]1SC(C)(C)[C@@H]2C(=O)O [OXACILLIN] | 0.12 (≈ 0.299 µM) | 0.12 (≈ 0.299 µM) | > 4 | > 4 |  |  |  |  | 0.25 (≈ 0.623 µM) | 0.5 (≈ 1.25 µM) |  |  |  |  |  |  |  |  | > 4 | > 4 | 
10 | CCC[C@@H]1C[C@@H](C(=O)N[C@@H]([C@H]2O[C@H](SC)[C@H](O)[C@@H](O)[C@H]2O)[C@H](C)Cl)N(C)C1 [CLINDAMYCIN] | ≤ 0.5 | ≤ 0.5 |  |  | 0.06 (≈ 0.141 µM) | 0.06 (≈ 0.141 µM) | 0.06 (≈ 0.141 µM) | > 0.25 | ≤ 0.5 | ≤ 0.5 | > 0.25 | 0.06 (≈ 0.141 µM) | 0.06 (≈ 0.141 µM) | ≤ 0.03 | > 0.25 | ≤ 0.03 | 0.06 (≈ 0.141 µM) |  | > 4 | > 4 | MIC [1]: ≤ 0.5 µg/mL; MIC [6]: ≤ 0.5 µg/mL; MIC [9]: ≤ 0.03 µg/mL; MIC [10]: ≤ 0.03 µg/mL
11 | CNC1C(O)C(OC2C(N)CC(N)C(OC3OC(CN)CCC3N)C2O)OCC1(C)O (centres undefined) [GENTAMICIN C1A] | ≤ 0.06 | ≤ 0.06 | 8 (≈ 17.8 µM) | 0.5 (≈ 1.11 µM) |  |  |  |  | 0.25 (≈ 0.556 µM) | 1 (≈ 2.22 µM) |  |  |  |  |  |  |  |  | > 16 | > 16 | MIC [1]: ≤ 0.06 µg/mL
12 | C[C@H]1COc2c(N3CCN(C)CC3)c(F)cc3c(=O)c(C(=O)O)cn1c23.C[C@H]1COc2c(N3CCN(C)CC3)c(F)cc3c(=O)c(C(=O)O)cn1c23.O [LEVOFLOXACIN] |  |  |  |  | 0.5 | 1 | 0.5 | 1 |  |  | 0.5 | 0.5 | 1 | 0.5 | 1 | 0.5 | 0.5 | 4 |  |  | 

— ChEMBL document CHEMBL1154412, “In vitro activity of telavancin against gram-positive clinical isolates recently obtained in Europe” (Antimicrob Agents Chemother, 2007)
